Values quoted from earlier work in PMC3433420 (PLoS ONE, 2012).
Like-named read-outs stand apart in the source and are kept apart here.

Biological target: SH2 and PTB domains
Conditions: cited from earlier work
Text: Supplement pone.0044471.s022.xlsx, sheet "Most recent PM interactions" | column: Kd || Supplement pone.0044471.s022.xlsx, sheet "All original PM interactions" | column: Kd

[1] = protein ABL2, ref Jones et al. 2006 / Kaushansky et al. Mol Biosys 2008 / Kaushansky et al. Chem and Biol 2008
[2] = protein BLK, ref Jones et al. 2006 / Kaushansky et al. Mol Biosys 2008 / Kaushansky et al. Chem and Biol 2008
[3] = protein RASA1-N, ref Jones et al. 2006 / Kaushansky et al. Mol Biosys 2008 / Kaushansky et al. Chem and Biol 2008
[4] = protein SYK-NC, ref Jones et al. 2006 / Kaushansky et al. Mol Biosys 2008 / Kaushansky et al. Chem and Biol 2008
[5] = protein YES1, ref Jones et al. 2006 / Kaushansky et al. Mol Biosys 2008 / Kaushansky et al. Chem and Biol 2008
[6] = Protein ABL2, most recent PM interactions, ref Jones et al. 2006 / Kaushansky et al. Chem and Biol 2008
[7] = Protein SHC1-PTB, most recent PM interactions, ref Jones et al. 2006 / Kaushansky et al. Chem and Biol 2008
[8] = protein SHB, ref Jones et al. 2006 / Kaushansky et al. Mol Biosys 2008 / Kaushansky et al. Chem and Biol 2008

Substance: EEYEpYMNRRRRHd [ErbB3 pY1199, N-terminally rhodamine-labeled 13-mer phosphopeptide]
- Kd (protein ABL2, ref Kaushansky et al. Chem and Biol 2008): 0.3 µM
- Kd (protein BLK, ref Kaushansky et al. Chem and Biol 2008): 1.81 µM
- Kd (protein FGR, ref Kaushansky et al. Chem and Biol 2008): 1.13 µM
- Kd (protein PIK3R1-NC, ref Kaushansky et al. Chem and Biol 2008): 1.51 µM
- Kd (protein PIK3R2-N, ref Kaushansky et al. Chem and Biol 2008): 1.35 µM
- Kd (protein PIK3R3-N, ref Kaushansky et al. Chem and Biol 2008): 1.38 µM
- Kd (protein PIK3R3-NC, ref Kaushansky et al. Chem and Biol 2008): 1.46 µM
- Kd (protein RASA1-N, ref Kaushansky et al. Chem and Biol 2008): 0.31 µM
- Kd (protein YES1, ref Kaushansky et al. Chem and Biol 2008): 0.59 µM
- Kd (protein ZAP70-NC, ref Kaushansky et al. Chem and Biol 2008): 1.47 µM

Substance: ELMTFGSKPpYDGIPASEd [ErbB1 915]
- Kd (Protein ABL2, most recent PM interactions, ref Jones et al. 2006 / Kaushansky et al. Mol Biosys 2008 / Kaushansky et al. Chem and Biol 2008): 0.18 µM
- Kd (Protein BLK, most recent PM interactions, ref Jones et al. 2006 / Kaushansky et al. Mol Biosys 2008 / Kaushansky et al. Chem and Biol 2008): 1.18 µM
- Kd (Protein RASA1-N, most recent PM interactions, ref Jones et al. 2006 / Kaushansky et al. Mol Biosys 2008 / Kaushansky et al. Chem and Biol 2008): 1.41 µM
- Kd (Protein SHB, most recent PM interactions, ref Jones et al. 2006 / Kaushansky et al. Mol Biosys 2008 / Kaushansky et al. Chem and Biol 2008): 1.06 µM
- Kd (Protein SYK-NC, most recent PM interactions, ref Jones et al. 2006 / Kaushansky et al. Mol Biosys 2008 / Kaushansky et al. Chem and Biol 2008): 1.55 µM
- Kd (Protein YES1, most recent PM interactions, ref Jones et al. 2006 / Kaushansky et al. Mol Biosys 2008 / Kaushansky et al. Chem and Biol 2008): 0.33 µM

Substance: ENAEpYLRVAPQSd [ErbB1 pY1197, N-terminally rhodamine-labeled 13-mer phosphopeptide]
- Kd [1]: 0.21 µM
- Kd [2]: 0.5 µM
- Kd (protein CRK, ref Jones et al. 2006 / Kaushansky et al. Mol Biosys 2008 / Kaushansky et al. Chem and Biol 2008): 1.07 µM
- Kd (protein CRKL, ref Jones et al. 2006 / Kaushansky et al. Mol Biosys 2008 / Kaushansky et al. Chem and Biol 2008): 1.34 µM
- Kd (protein FGR, ref Jones et al. 2006 / Kaushansky et al. Mol Biosys 2008 / Kaushansky et al. Chem and Biol 2008): 0.62 µM
- Kd (protein GRB2, ref Jones et al. 2006 / Kaushansky et al. Mol Biosys 2008 / Kaushansky et al. Chem and Biol 2008): 0.42 µM
- Kd (protein ITK, ref Jones et al. 2006 / Kaushansky et al. Mol Biosys 2008 / Kaushansky et al. Chem and Biol 2008): 0.5 µM
- Kd (protein LYN, ref Jones et al. 2006 / Kaushansky et al. Mol Biosys 2008 / Kaushansky et al. Chem and Biol 2008): 0.17 µM
- Kd (protein PIK3R1-N, ref Jones et al. 2006 / Kaushansky et al. Mol Biosys 2008 / Kaushansky et al. Chem and Biol 2008): 0.5 µM
- Kd (protein PIK3R1-NC, ref Jones et al. 2006 / Kaushansky et al. Mol Biosys 2008 / Kaushansky et al. Chem and Biol 2008): 0.5 µM
- Kd (protein PIK3R2-N, ref Jones et al. 2006 / Kaushansky et al. Mol Biosys 2008 / Kaushansky et al. Chem and Biol 2008): 0.5 µM
- Kd (protein PIK3R3-NC, ref Jones et al. 2006 / Kaushansky et al. Mol Biosys 2008 / Kaushansky et al. Chem and Biol 2008): 0.81 µM
- Kd (protein PLCG2-NC, ref Jones et al. 2006 / Kaushansky et al. Mol Biosys 2008 / Kaushansky et al. Chem and Biol 2008): 0.5 µM
- Kd [3]: 0.71 µM
- Kd (protein RASA1-NC, ref Jones et al. 2006 / Kaushansky et al. Mol Biosys 2008 / Kaushansky et al. Chem and Biol 2008): 0.5 µM
- Kd (protein SHC1-PTB, ref Jones et al. 2006 / Kaushansky et al. Mol Biosys 2008 / Kaushansky et al. Chem and Biol 2008): 0.34 µM
- Kd (protein SHC1, ref Jones et al. 2006 / Kaushansky et al. Mol Biosys 2008 / Kaushansky et al. Chem and Biol 2008): 0.78 µM
- Kd (protein SHC3, ref Jones et al. 2006 / Kaushansky et al. Mol Biosys 2008 / Kaushansky et al. Chem and Biol 2008): 1.03 µM
- Kd (protein SRC, ref Jones et al. 2006 / Kaushansky et al. Mol Biosys 2008 / Kaushansky et al. Chem and Biol 2008): 0.38 µM
- Kd (protein SYK-N, ref Jones et al. 2006 / Kaushansky et al. Mol Biosys 2008 / Kaushansky et al. Chem and Biol 2008): 0.29 µM
- Kd [4]: 0.38 µM
- Kd (protein TEC, ref Jones et al. 2006 / Kaushansky et al. Mol Biosys 2008 / Kaushansky et al. Chem and Biol 2008): 0.48 µM
- Kd [5]: 0.13 µM

Substance: ENPEpYLGLDVPVd [ErbB2 pY1248, N-terminally rhodamine-labeled 13-mer phosphopeptide]
- Kd (Protein ABL2, original PM interactions, ref Jones et al. 2006 / Kaushansky et al. Chem and Biol 2008): 0.21 µM
- Kd (Protein SHC1-PTB, original PM interactions, ref Jones et al. 2006 / Kaushansky et al. Chem and Biol 2008): 0.28 µM

Substance: ENPEpYLSEFSLKd [ErbB4 pY1284, N-terminally rhodamine-labeled 13-mer phosphopeptide]
- Kd (protein ABL2, ref Jones et al. 2006): 0.22 µM
- Kd (protein PIK3R2-NC, all original PM interactions, ref Jones et al. 2006): 2 µM
- Kd (protein PIK3R2-NC, ref Jones et al. 2006): 2 µM
- Kd (protein PIK3R3-NC, all original PM interactions, ref Jones et al. 2006): 2 µM
- Kd (protein PIK3R3-NC, ref Jones et al. 2006): 2 µM
- Kd (protein PLCG1-NC, all original PM interactions, ref Jones et al. 2006): 2 µM
- Kd (protein PLCG1-NC, ref Jones et al. 2006): 2 µM
- Kd (protein RASA1-N, ref Jones et al. 2006): 0.71 µM
- Kd (protein SH2B3, all original PM interactions, ref Jones et al. 2006): 2 µM
- Kd (protein SH2B3, ref Jones et al. 2006): 2 µM
- Kd (protein SHC1-PTB, ref Jones et al. 2006): 0.024 µM
- Kd (protein SLA2, all original PM interactions, ref Jones et al. 2006): 2 µM
- Kd (protein SLA2, ref Jones et al. 2006): 2 µM
- Kd (protein SYK-NC, ref Jones et al. 2006): 1.67 µM
- Kd (protein VAV2, all original PM interactions, ref Jones et al. 2006): 2 µM
- Kd (protein VAV2, ref Jones et al. 2006): 2 µM

Substance: FGGAVENPEpYLTPQGGA [ErbB2 1196]
- Kd [6]: 0.48 µM
- Kd (Protein CRKL, most recent PM interactions, ref Jones et al. 2006 / Kaushansky et al. Chem and Biol 2008): 1.44 µM
- Kd (Protein FGR, most recent PM interactions, ref Jones et al. 2006 / Kaushansky et al. Chem and Biol 2008): 1.68 µM
- Kd (Protein GRB2, most recent PM interactions, ref Jones et al. 2006 / Kaushansky et al. Chem and Biol 2008): 1.33 µM
- Kd (Protein ITK, most recent PM interactions, ref Jones et al. 2006 / Kaushansky et al. Chem and Biol 2008): 0.77 µM
- Kd (Protein NCK2, most recent PM interactions, ref Jones et al. 2006 / Kaushansky et al. Chem and Biol 2008): 1.1 µM
- Kd (Protein PIK3R1-NC, most recent PM interactions, ref Jones et al. 2006 / Kaushansky et al. Chem and Biol 2008): 0.23 µM
- Kd (Protein PIK3R2-N, most recent PM interactions, ref Jones et al. 2006 / Kaushansky et al. Chem and Biol 2008): 1.28 µM
- Kd (Protein PIK3R3-N, most recent PM interactions, ref Jones et al. 2006 / Kaushansky et al. Chem and Biol 2008): 1.39 µM
- Kd (Protein PIK3R3-NC, most recent PM interactions, ref Jones et al. 2006 / Kaushansky et al. Chem and Biol 2008): 1.34 µM
- Kd (Protein PLCG2-NC, most recent PM interactions, ref Jones et al. 2006 / Kaushansky et al. Chem and Biol 2008): 1.35 µM
- Kd (Protein RASA1-N, most recent PM interactions, ref Jones et al. 2006 / Kaushansky et al. Chem and Biol 2008): 0.67 µM
- Kd [7]: 0.35 µM
- Kd (Protein SYK-C, most recent PM interactions, ref Jones et al. 2006 / Kaushansky et al. Chem and Biol 2008): 1.24 µM
- Kd (Protein SYK-NC, most recent PM interactions, ref Jones et al. 2006 / Kaushansky et al. Chem and Biol 2008): 1.33 µM
- Kd (Protein VAV1, most recent PM interactions, ref Jones et al. 2006 / Kaushansky et al. Chem and Biol 2008): 1.25 µM
- Kd (Protein VAV2, most recent PM interactions, ref Jones et al. 2006 / Kaushansky et al. Chem and Biol 2008): 0.23 µM
- Kd (Protein VAV3, most recent PM interactions, ref Jones et al. 2006 / Kaushansky et al. Chem and Biol 2008): 0.6 µM
- Kd (Protein YES1, most recent PM interactions, ref Jones et al. 2006 / Kaushansky et al. Chem and Biol 2008): 1.19 µM

Substance: FLQRpYSSDPTGAd [ErbB1 pY1069, N-terminally rhodamine-labeled 13-mer phosphopeptide]
- Kd [1]: 2 µM
- Kd [8]: 0.86 µM
- Kd [5]: 0.3 µM

Substance: GSKPpYDGIPASEd [ErbB1 pY915, N-terminally rhodamine-labeled 13-mer phosphopeptide]
- Kd [1]: 0.14 µM
- Kd [2]: 1.18 µM
- Kd [3]: 1.47 µM
- Kd [8]: 1.06 µM
- Kd [4]: 1.55 µM
- Kd [5]: 0.33 µM

Substance: GTPTAENPEpYLGLDVPV [ErbB2 1248]
- Kd [6]: 0.21 µM
- Kd [7]: 0.28 µM
